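Grown in 96-well plates, cells were treated for 48 hours with each compound at five concentrations. Insufficient inhibition: endpoint recorded as highest concentration tested. Here, GI50 denotes the concentration required for 50% inhibition of growth.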 The source made the active and inactive calls. No stated cut-off is given here; in the data, active = GI50 up to about 1.1 µM and inactive = higher.

The text below walks through data of ChEMBL document CHEMBL1201862, “PubChem BioAssay data set” (2004).

Among the test systems are SW-620; NCI/ADR-RES; MCF7; SK-MEL-5; LOX IMVI; 786-0; HCT-116; HCC 2998; Malme-3M; SF-539; A498; NCI-H522; SNB-75; CCRF-CEM; SR; M14; HOP-92; SF-295; SN12C.
Experiment in all cases: NCI anticancer screen, dose series, 48 h

Take `CC(=O)O[C@H]1C(=O)[C@@]2(C)[C@H]([C@H](OC(=O)c3ccoc3)[C@]3(O)C[C@H](OC(=O)[C@H](O)[C@@H](NC(=O)c4ccccc4)c4ccccc4)C(C)=C1C3(C)C)[C@]1(OC(C)=O)CO[C@@H]1C[C@@H]2O`: the GI50 with SW-620 was 0.0448 µM (active); with NCI/ADR-RES, > 10.9 µM (inactive); in the assay on MCF7, 0.0138 µM (active); with SK-MEL-5, 0.0467 µM (active); in the assay with LOX IMVI, 0.032 µM (active); in the assay with 786-0, 0.38 µM (active). In addition, the GI50 with HCT-116 is 0.0186 µM (active); in the assay with HCC 2998, 0.116 µM (active); in the assay on Malme-3M, 0.0316 µM (active); in the assay on SF-539, 0.0286 µM (active); in the assay on A498 it was 0.811 µM (active); with NCI-H522, 0.0434 µM (active). Also, the GI50 was 0.141 µM (active) with SNB-75; 0.0566 µM (active) in the assay with CCRF-CEM; 0.026 µM (active) with SR; 0.129 µM (active) in the assay on M14; > 12.5 µM (inactive) with HOP-92; 0.582 µM (active) with SF-295.

In the case of `c1cc(-c2ccc(Oc3ccc(-c4ccncc4)cc3)cc2)ccn1`, the GI50 in the assay on SW-620 was 4.37 µM (inactive); with NCI/ADR-RES it was 3.01 µM (inactive); in the assay with MCF7 it was 4.26 µM (inactive); in the assay with SK-MEL-5, 2.2 µM (inactive); in the assay with LOX IMVI, 9.18 µM (inactive); in the assay on 786-0 it was 6.81 µM (inactive). In addition, the GI50 in the assay with HCT-116 is 4.24 µM (inactive); with HCC 2998 it was 5 µM (inactive); in the assay on Malme-3M, 6.82 µM (inactive); in the assay with SF-539, 5.4 µM (inactive); in the assay on A498 it was 6.76 µM (inactive); in the assay on NCI-H522, 6.12 µM (inactive). Moreover, the GI50 is 23.3 µM (inactive) in the assay on SN12C; 15.9 µM (inactive) in the assay on SNB-75; 4.73 µM (inactive) in the assay on CCRF-CEM; 3.15 µM (inactive) in the assay on SR; 4.76 µM (inactive) in the assay on M14; 14.1 µM (inactive) in the assay with HOP-92. Further, in the assay with SF-295, the GI50 is 5.96 µM (inactive).

Turning to `COc1cc(C(=O)Oc2c(C(C)=O)sc3c2c(=O)n(-c2ccccc2)c(=S)n3-c2ccccc2)cc(OC)c1OC`, the GI50 in the assay on SW-620 is 25.2 µM (inactive); in the assay with NCI/ADR-RES, 15.4 µM (inactive); in the assay with MCF7, 19.5 µM (inactive); in the assay with SK-MEL-5, 17.4 µM (inactive); with LOX IMVI, 18.7 µM (inactive); in the assay with 786-0, 19.6 µM (inactive). Further, the GI50 is 18.1 µM (inactive) in the assay with HCT-116; 24.7 µM (inactive) in the assay with HCC 2998; 8.17 µM (inactive) in the assay on Malme-3M; 11.6 µM (inactive) with SF-539; 5.78 µM (inactive) in the assay with A498; 1.01 µM (active) in the assay with NCI-H522. In addition, the GI50 is 11.9 µM (inactive) in the assay on SN12C; 19.8 µM (inactive) in the assay with SNB-75; 15.3 µM (inactive) in the assay on CCRF-CEM; > 100 µM (inactive) in the assay with SR; 16.9 µM (inactive) in the assay with M14; 19.3 µM (inactive) with HOP-92. Besides, in the assay with SF-295, the GI50 is 8.3 µM (inactive).

Regarding `Cn1c2ccccc2c2cc(-c3ccccc3)c3c(c21)C(=O)C=CC3=O`, the GI50 in the assay on SW-620 is 9.48 µM (inactive); with NCI/ADR-RES, 41.3 µM (inactive); in the assay on MCF7, 12.3 µM (inactive); with SK-MEL-5 it was 28.3 µM (inactive); in the assay on LOX IMVI it was 18.6 µM (inactive); with 786-0 it was 8.15 µM (inactive). In addition, the GI50 in the assay on HCT-116 was 20.2 µM (inactive); in the assay on HCC 2998 it was 34.1 µM (inactive); in the assay on Malme-3M, 19.5 µM (inactive); in the assay on SF-539, 27.3 µM (inactive); in the assay with A498, 22.5 µM (inactive); in the assay on NCI-H522 it was 17.5 µM (inactive). The GI50 was 21.7 µM (inactive) in the assay with SN12C; 27.6 µM (inactive) with SNB-75; 1.59 µM (inactive) in the assay on CCRF-CEM; 3.31 µM (inactive) in the assay on SR; 21.1 µM (inactive) with M14; 14.5 µM (inactive) with HOP-92. In addition, in the assay on SF-295, the GI50 was 24 µM (inactive).

As to `C1COCCN1.CN(C)c1ccc(-c2c(C#N)c(N)nc(S)c2C#N)cc1`, the GI50 in the assay with SW-620 was 63 µM (inactive); with NCI/ADR-RES, > 100 µM (inactive); in the assay with MCF7, 53.1 µM (inactive); with SK-MEL-5, 44.7 µM (inactive); with LOX IMVI, 80.2 µM (inactive); in the assay on 786-0, > 100 µM (inactive). For the same compound, the GI50 with HCT-116 is > 100 µM (inactive); with HCC 2998, 56.1 µM (inactive); in the assay with Malme-3M, > 100 µM (inactive); in the assay on SF-539 it was > 100 µM (inactive); in the assay with A498, 24.9 µM (inactive); in the assay on NCI-H522, 29 µM (inactive). In addition, the GI50 was 66.2 µM (inactive) with SN12C; 34.3 µM (inactive) in the assay with SNB-75; 38.5 µM (inactive) in the assay on CCRF-CEM; 23.2 µM (inactive) in the assay with SR; 34 µM (inactive) with M14; 21.8 µM (inactive) in the assay with HOP-92. Further, in the assay on SF-295, the GI50 was 61 µM (inactive).

In the case of `OC1c2[nH]c3ccccc3c2CCN2CCCCC12` (configuration not stated), the GI50 with SW-620, with NCI/ADR-RES, in the assay on MCF7, with LOX IMVI, in the assay with 786-0 and in the assay on HCT-116 was > 100 µM (inactive) each time. In addition, the GI50 was 75.3 µM (inactive) with HCC 2998; > 100 µM (inactive) in the assay with Malme-3M; > 100 µM (inactive) in the assay on SF-539; > 100 µM (inactive) in the assay with A498; > 100 µM (inactive) in the assay on NCI-H522; > 100 µM (inactive) with SN12C. Moreover, the GI50 is 59.4 µM (inactive) in the assay on SNB-75; > 100 µM (inactive) in the assay with CCRF-CEM; > 100 µM (inactive) with SR; > 100 µM (inactive) with M14; 51.1 µM (inactive) in the assay with HOP-92; > 100 µM (inactive) with SF-295.

With `COC(=O)CCC(C)[C@H]1CCC2C3CC[C@@H]4CC5(CC[C@]4(C)C3C[C@H](OC(C)=O)[C@@]21C)OOC1(CCCCC1)OO5` (some centres not stated), the GI50 is 81.1 µM (inactive) in the assay on NCI/ADR-RES; 8.69 µM (inactive) with MCF7; 5.78 µM (inactive) in the assay with SK-MEL-5; 12.1 µM (inactive) in the assay on 786-0; 3.24 µM (inactive) in the assay with HCT-116; 2.25 µM (inactive) in the assay with HCC 2998. Also, the GI50 in the assay with Malme-3M was 4.03 µM (inactive); in the assay on SF-539 it was 44.7 µM (inactive); in the assay on A498 it was > 100 µM (inactive); in the assay with NCI-H522, 6.01 µM (inactive); in the assay with SN12C, > 100 µM (inactive); with SNB-75, 55.2 µM (inactive). Also, the GI50 in the assay with CCRF-CEM was 5.3 µM (inactive); with SR, 3.33 µM (inactive); with M14, 3.33 µM (inactive); in the assay with HOP-92, 46.6 µM (inactive); in the assay on SF-295, 9.4 µM (inactive).

`CC(C(N)=O)N(C)C(=O)c1cnc2ccccc2c1` (configuration not stated): the GI50 with SW-620, in the assay with NCI/ADR-RES, with MCF7, in the assay with SK-MEL-5, with 786-0 and in the assay on HCT-116 was > 100 µM (inactive) in each case. Further, the GI50 with HCC 2998, in the assay with Malme-3M, in the assay with SF-539, with A498, in the assay with NCI-H522 and in the assay with SN12C was > 100 µM (inactive) each time. Moreover, the GI50 in the assay with SNB-75, in the assay with CCRF-CEM, with SR, in the assay on M14, in the assay with HOP-92 and in the assay with SF-295 was > 100 µM (inactive) throughout.

On to `COC1CCC(OS(C)(=O)=O)C(C)O1` (configuration not stated), for which the GI50 in the assay with SW-620, with NCI/ADR-RES, in the assay on MCF7, in the assay on SK-MEL-5, with LOX IMVI and in the assay with 786-0 was > 10 µM (inactive) throughout. Besides, the GI50 in the assay with HCT-116, in the assay on HCC 2998, with Malme-3M, in the assay with SF-539, with A498 and with NCI-H522 was > 10 µM (inactive) each time. Besides, the GI50 was > 10 µM (inactive) with SN12C; > 10 µM (inactive) in the assay on SNB-75; > 10 µM (inactive) in the assay on CCRF-CEM; > 10 µM (inactive) in the assay on SR; > 10 µM (inactive) with M14; 5.89 µM (inactive) with HOP-92. For the same compound, the GI50 with SF-295 was > 10 µM (inactive).

Consider `OCCN(CCO)c1ccc2c(C(F)(F)F)cc(C(F)(F)F)nc2n1`, for which the GI50 with SW-620 is > 100 µM (inactive); in the assay on NCI/ADR-RES, > 80.4 µM (inactive); in the assay with MCF7, > 100 µM (inactive); with SK-MEL-5, 95.7 µM (inactive); with LOX IMVI, > 100 µM (inactive); in the assay with 786-0 it was > 100 µM (inactive). The GI50 is > 100 µM (inactive) with HCT-116; > 100 µM (inactive) in the assay with HCC 2998; > 100 µM (inactive) with Malme-3M; > 100 µM (inactive) in the assay with SF-539; 48.5 µM (inactive) in the assay with A498; > 100 µM (inactive) in the assay on NCI-H522. The GI50 in the assay with SN12C, with SNB-75, with CCRF-CEM, with SR, with M14 and in the assay on HOP-92 was > 100 µM (inactive) in each case. The GI50 in the assay on SF-295 was > 100 µM (inactive).

As to `COc1ccc2nc(-c3ccc(N)cc3)sc2c1`, the GI50 in the assay with SW-620 was > 100 µM (inactive); with NCI/ADR-RES, > 100 µM (inactive); in the assay with MCF7, > 100 µM (inactive); in the assay with SK-MEL-5, 61.4 µM (inactive); in the assay on 786-0, 43.9 µM (inactive); in the assay with HCT-116 it was > 100 µM (inactive). Further, the GI50 is 42 µM (inactive) with HCC 2998; > 100 µM (inactive) with Malme-3M; > 100 µM (inactive) in the assay on SF-539; 53.1 µM (inactive) in the assay with A498; 23.6 µM (inactive) in the assay on NCI-H522; 44.8 µM (inactive) with SNB-75. The GI50 in the assay with CCRF-CEM is 4.89 µM (inactive); in the assay on SR, 32.4 µM (inactive); with M14, > 100 µM (inactive); in the assay on HOP-92 it was > 100 µM (inactive); in the assay on SF-295, 43.1 µM (inactive).
